Experiment: gradient 5% acetonitrile 3 min, to 50% in 2 min, to 85% in 15 min, held 3 min, 100 µL/min
Conditions: column: Zorbax Extend-C18 2.1 x 50 mm; eluents: water / acetonitrile, 0.1% formic acid
How it was run: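 Over 3 months, pure standards in mixtures of ~100 molecules were run by HPLC coupled to a quadrupole time-of-flight mass spectrometer in positive and negative ionization mode. The column was a Zorbax Extend-C18 (2.1 × 50 mm, 1.8 μm) at 100 μL/min, eluted with water and acetonitrile each holding 0.1% formic acid, with 40 μL dead and 900 μL dwell volumes. Retention time was determined from adduct peaks chosen by software and checked manually.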

SMILES	RP-LC retention time
CCN(CC)c1nc2cc(C(=O)NCC3CC3)ccc2c(=O)n1Cc1ccc(C)cc1	1090 s
O=C(CCc1cc(Cl)no1)N1CCC(c2nc(C3CCOCC3)no2)C1 (centres undefined)	701 s
CCOc1ccc(-n2cc(C(=O)OCC(=O)OC(C)C)c3ccccc3c2=O)cc1	1140 s
CC1(C(=O)Nc2ccccc2)Oc2cccnc2NC1=O (centres undefined)	655 s
CC1CCN(C(=O)C2=NN(Cc3ccccc3)c3ccccc3S2(=O)=O)CC1	1010 s
Cn1cc(CC(=O)N2CCC(C(=O)NCC(F)(F)F)CC2)c2ccccc21	718 s
Cc1ccc2c(Nc3ccccc3C)c(-c3nc(C)no3)cnc2n1	743 s
N#Cc1ccc(NC(=O)Cn2cccc(-c3nc(-c4ccc(Br)cc4)no3)c2=O)cc1	952 s
COc1cc(Cl)c(NC(=O)C2CCN(C(=O)C3Sc4ccccc4NC3=O)CC2)c(OC)c1 (centres undefined)	795 s
COC(=O)c1ccc(CSc2nc3ccccc3[nH]2)cc1	648 s
OCCn1cc(-c2ccc3c(c2)CC/C3=N\O)c(-c2ccncc2)n1	603 s
COc1ccccc1NC(=O)N1CCCC1c1nncn1-c1ccccc1 (centres undefined)	711 s
CCc1noc(NC(C)=O)c1-c1ccc(C)c(S(=O)(=O)N2CCCC2)c1	801 s
CCOc1ccccc1CNC(=O)C1CCCN(c2nnc3ccc(Cl)cn23)C1 (centres undefined)	826 s
COc1ccc(-c2cc(C(=O)O)c3ccccc3n2)cc1	645 s
CCc1nncn1C1CCN(S(=O)(=O)c2cc(F)ccc2OC)CC1	696 s
Fc1cc(F)cc(-c2nnc(Cc3nc(-c4cccc(C(F)(F)F)c4)no3)o2)c1	851 s
O=C(NCC(F)(F)F)C1CCN(S(=O)(=O)CCN2C(=O)CCCC2=O)CC1	637 s
O=c1c(S(=O)(=O)N2CCCC2)cccn1Cc1nc(-c2ccccc2Cl)no1	808 s
O=C1CCCc2c1cc(C(=O)Nc1ccc(F)cc1F)c(=O)n2-c1ccc(F)cc1	785 s
O=C(NCC1CCN(C(=O)Nc2ccc(F)cc2)CC1)c1ccccc1Cl	713 s
Cc1ccccc1N1CCN(S(=O)(=O)c2cc(-c3nnc(C4CC4)o3)co2)CC1	1090 s
CCCN(C(C)=O)c1nc(-c2ccc(C)cc2)cs1	1190 s

SMILES	RP-LC retention time
CSc1ccc(NC(=O)C2CCN(c3cncnc3N3CCOCC3)CC2)cc1	669 s
COC(=O)N1CCN(CCNC(=O)C2(c3ccc(Cl)cc3)CCCC2)CC1	592 s
COCCCNC(=O)c1ccc(N2CCCN(Cc3ccccc3C)C2=O)cc1	769 s
CC(C)N1CCN(C(=O)C2CCc3sc(C(=O)N4CCCCCC4)cc3C2)CC1 (centres undefined)	619 s
Cn1cc(-c2cc3n(n2)CCC(=O)N3CC(=O)NCCCN2CCCCCC2)c2ccccc21	621 s
COc1ccccc1N1CCN(CCCNc2cc(=O)n(C)c(=O)n2C)CC1	637 s
O=C(Nc1ccc2c(c1)C(=O)Nc1ccccc1O2)c1ccc2nsnc2c1	773 s
CC(C)Sc1ccc(CC(=O)NCc2ccsc2)cc1	908 s
COc1ccc(C(=O)N2CCc3cn(C)c4cccc(c34)C2)c(OC)c1	875 s
Cc1ccc2nc(NC3=NCN(CCc4cccs4)CN3)nc(C)c2c1	746 s
Cc1ccc(N2C(=O)CN(S(C)(=O)=O)CC2(C)C(=O)NCc2ccc(Cl)cc2)c(C)c1 (centres undefined)	903 s
Cc1ccc(NC(=O)N2CCC(n3cnc4ccc(C)cc4c3=O)CC2)c(C)c1	795 s
Cc1ccc(C2=NC3(CCN(C(C)C)CC3)NC(c3ccccc3O)C2)cc1 (centres undefined)	612 s
CCNC(=O)NC1CCN(c2ccccc2)C1=O (centres undefined)	596 s
Cc1c(Cl)cccc1NC(=O)C(=O)NCC(O)c1ccc(C(F)(F)F)cc1 (centres undefined)	936 s
O=C(Cn1ccc2ccccc21)NCCn1ncccc1=O	625 s
O=C(Cn1cnc2nc(N3CCC(C(=O)NC4CC4)CC3)sc2c1=O)Nc1cccc(F)c1	655 s
CN1CCN(C(=O)C2CCN(c3nc4ccc(-c5ccsc5)nc4s3)CC2)CC1	651 s
Clc1ccccc1N1CCN(c2nccn3nc(-c4ccccc4)cc23)CC1	1330 s
NCC(O)COc1cccc2ccccc12 (centres undefined)	679 s
CCOc1nccnc1N1CCC(NC(=O)c2ccc(C#N)cc2)C1 (centres undefined)	650 s
O=C(Nc1nccs1)C1CCCN(S(=O)(=O)c2c[nH]c(C(=O)N3CCCC3)c2)C1 (centres undefined)	688 s
O=C(CSc1nnc(NC(=O)C2(c3cccs3)CCCC2)s1)c1ccccc1	1050 s

SMILES	RP-LC retention time
COc1ccccc1/C=C/c1nc(-c2cccc(-c3ccnn3C)c2)no1	1200 s
O=C(CCc1nc2cccnc2n1-c1ccccc1)NCCc1c[nH]c2ccccc12	706 s
Cc1ccccc1-c1noc(N2CCC(C(=O)NCc3ccc4c(c3)OCO4)CC2)n1	942 s
CCOC(=O)C(=O)Nc1ccc(SCc2nnc(-c3ccccc3)o2)cc1	881 s
O=C(Cc1ccc(Br)cc1)NC1CCN(c2cc(-c3cccs3)[nH]n2)C1 (centres undefined)	767 s
Cc1cccc(C)c1NC(=O)Cn1cnc2nc(N3CCC(C(=O)NC(C)C)CC3)sc2c1=O	666 s
CCN(CC)C(=O)c1ccc2c(c1)nnn2CCNC(=O)Nc1ccc2c(c1)CCC2	764 s
O=C(CN1C(=O)CCCc2cc(S(=O)(=O)N3CCCCCC3)ccc21)NCc1ccccc1	905 s
COCCN1C(=O)CCc2cc(NS(=O)(=O)c3c(C)cccc3Cl)ccc21	795 s
COCCNC(=O)N1CCN(c2cc(-c3cccc(OC)c3)ncn2)CC1	593 s
CNC(=O)Nc1ccc2nc3n(c(=O)c2c1)CCCC3	559 s
CCCn1c(=O)c2sc(N3CCCC3)nc2n(CC(=O)NCc2cccs2)c1=O	755 s
Cc1ccc(CC(=O)N2CCN(c3cc(-c4ccc(C)cc4)ncn3)CC2)cc1	704 s
O=C(Nc1nc(-c2ccc(Cl)cc2)cs1)c1cccc(-n2cnnc2)n1	865 s
Oc1ccc(-c2nc3ncccn3c2Nc2ccc(Cl)cc2)cc1	666 s
O=S(=O)(Nc1ccc(F)cc1F)c1c[nH]c2ncccc12	722 s
Cc1oc(-c2ccc(C(=O)N3CCCCC3)cc2)nc1CS(=O)(=O)c1ccccc1	843 s
Cc1cc(C)cc(NC(=O)C2CCCN(c3ccc4cc(S(=O)(=O)N5CCCC5)ccc4n3)C2)c1 (centres undefined)	835 s
CN(C)c1ccc(CN2C(=O)CN(S(C)(=O)=O)CC2(C)C(=O)NCc2ccc(Cl)cc2)cc1 (centres undefined)	662 s
CCCc1nc(-n2cccc2)sc1C(=O)Nc1ccc(OC)cc1F	1150 s
Cc1ccc2nc(-c3ccc(Cl)cc3)c(Nc3ccc4c(c3)OCCO4)n2c1	735 s
COc1ccc2c(c1)C(C)CC(C)(C)N2C(=O)CSc1ncccn1 (centres undefined)	994 s
Cc1nc2ccc(N)nc2nc1C	594 s

SMILES	RP-LC retention time
COc1ccc(-c2nnc(-c3cc(S(=O)(=O)Nc4cccnc4)ccc3Cl)o2)cc1	803 s
O=C(Nc1ccc(C(=O)N2CCC(C(=O)NC3CCCCCC3)CC2)cc1)c1ccccc1Cl	839 s
COC(=O)CNC(=O)C1COc2ccc(NC(=O)c3ccc(Br)cc3)cc2C1 (centres undefined)	794 s
Cc1ccccc1CNC(=O)C1CCCN1S(=O)(=O)c1cc2c(cc1Cl)NC(=O)CO2 (centres undefined)	786 s
CCC(C)NC(=O)Cn1c(=O)c2cnc(-c3ccccc3)nc2n(C)c1=O (centres undefined)	854 s
CC(C)=C(c1ccc(Cl)cc1)c1c(N)ncnc1N	705 s
O=C(NC1CC1)[C@@H]1C[C@H](Oc2ccccc2)CN1C(=O)c1cc2ccccc2[nH]1	847 s
CCOc1cc2c(cc1OCC)C1C(C(=O)N3CCN(C)CC3)c3ccccc3C(=O)N1CC2 (centres undefined)	567 s
CC(C)CCNC(=O)C1CC(=O)N(c2n[nH]c3cccc(F)c23)C1 (centres undefined)	699 s
CC(C)n1c(=O)oc2cc(-c3noc(-c4ccc(C(F)(F)F)cc4)n3)ccc21	1310 s
CCC(CC)NC(=O)C1Cn2cccc2C(=O)N1CC(C)C (centres undefined)	756 s
c1ccc(-n2cnnc2C2CCCCN2Cc2ccncc2)cc1 (centres undefined)	584 s
COc1cccc(N2CCN(c3ccc(-c4nc(-c5ccccc5)no4)cn3)CC2)c1	1410 s
CC(=O)N1c2ccccc2CC1c1nc(C(C)C)no1 (centres undefined)	841 s
O=C(NCC(O)(c1ccccc1)C(F)(F)F)c1ccc2nsnc2c1 (centres undefined)	853 s
Cc1ccc(Oc2cccc(C(=O)Nc3ccc(-c4cn5ccccc5n4)cc3)c2)nn1	568 s
Cc1noc(-c2ccc(OC3CN(C(=O)Cc4ccccc4)C3)cc2)n1	924 s
CN1CCCCCCN(C(=O)Cn2c(=O)oc3ccccc32)[C@H]2CCC[C@H]2C1=O	830 s
COc1ccc(-c2nc(C)c3c(n2)N(Cc2ccco2)C(=O)CC3)cc1	975 s
O=C(NCc1cccc(C(F)(F)F)c1)c1ccc2c(c1)ncn2CCN1CCCC1	618 s
